Active and inactive are the calls of the source. No rule for the calls is given here.
Each compound was assayed against methionyl-tRNA synthetase (Trypanosoma brucei brucei) (assay: T. brucei MetRS inhibitors, late-stage follow-up, biochemical, luminescence, dose response, round 3 (AID 1053132)). Conditions: recombinant T. brucei MetRS, luminescence (ATP consumption).

SMILES | IC50
O=C(Cc1ccc(Nc2nc3ccc(Br)cc3[nH]2)cc1)NCCc1cccs1 | inactive
Nc1c(Cl)ncnc1Nc1ccc(C(=O)O)cc1 | 2540 nM
CCN(CC)C(=O)C(=O)c1cn(CCNc2cc(Oc3ccccc3)cc(C(F)(F)F)c2)c2ccccc12 | inactive
CCN(CC)C(=O)Cc1cn(CC(=O)Nc2cccc(C(F)(F)F)c2)c2ccccc12 | > 119000 nM (inactive)
O=C(Cn1cc(C(=O)C(=O)NCc2ccccc2)c2ccccc21)Nc1cc(Oc2ccccc2)cc(C(F)(F)F)c1 | inactive
CCN(CC)C(=O)C(=O)c1cn(CCNc2cccc(C(F)(F)F)c2)c2ccccc12 | > 119000 nM (inactive)

The next lines start with the values.

IC50 | SMILES
58.1 nM | CCN(CC)C(=O)C(=O)c1cn(CC(=O)Nc2cc(Oc3ccccc3)cc(C(F)(F)F)c2)c2ccccc12
133 nM | CCN(CC)C(=O)C(=O)c1cn(CC(=O)Nc2cc(Oc3ccccc3F)cc(C(F)(F)F)c2)c2ccccc12
188 nM | CCN(CC)C(=O)C(=O)c1cn(CC(=O)Nc2cc(Oc3ccc(F)cc3)cc(C(F)(F)F)c2)c2ccccc12
128 nM | CCN(CC)C(=O)C(=O)c1cn(CC(=O)Nc2cccc(C(F)(F)F)c2)c2ccccc12
161 nM | CCN(CC)C(=O)C(=O)c1cn(CC(=O)Nc2cc(Oc3ccccc3OC)cc(C(F)(F)F)c2)c2ccccc12
168 nM | CCN(CC)C(=O)C(=O)c1cn(CC(=O)Nc2cc(Oc3ccc(OC)cc3)cc(C(F)(F)F)c2)c2ccccc12

Source: PubChem BioAssay AID1053132 (The Scripps Research Institute Molecular Screening Center, 2014)
